Structures are written as SMILES.

The source of these data is ChEMBL document CHEMBL1149943, “2-aminoalchohol immunosuppressants: Structure-activity relationships” (Bioorg Med Chem Lett, 1996).

The species entered for this experiment is Mus musculus. As to the kind of experiment: Compound was tested for its effect on mouse allogenic mixed lymphocyte reaction(MLR). Format: functional, organism-based.
As for `CCCCCCCCCCCCCCCCCC[C@@H](N)CO`, the 50% inhibitory concentration (IC50) was found to be 533 nM.
In turn, `CCCCCCCCCCCCCCCCCC[C@H](N)CO` displayed a half-maximal inhibitory concentration (IC50) of 1390 nM.
With `CCCCCCCCCCCCCCCCCCC(N)CO` (racemic), half-maximal inhibition (IC50) was put at 867 nM.
Molecule `CCCCCCCCc1ccc(CC[C@H](N)CO)cc1` gave a half-maximal inhibitory concentration (IC50) of 427 nM.
For `CCCCCCCCc1ccc(CCC(N)CO)cc1` (stereo not given), the half-maximal inhibitory concentration (IC50) amounted to 211 nM.
For `CCCCCCCCCCCCCCC(N)CO` (racemic) the value was 98.3 nM; for `CCCCCCCCCCCCCC[C@H](N)CO`, 137 nM.
In turn, `CCCCCCCCc1ccc(CCC(N)(CO)CO)cc1` [FINGOLIMOD] gave an IC50 of 67.4 nM.
The molecule `CCCCCCCCCCCCCC[C@@H](N)CO` returned an IC50 of 68.8 nM.
Molecule `CCCCCCCCc1ccc(CC[C@@H](N)CO)cc1` returned an IC50 of 108 nM.

As a reminder, the IC50 is the concentration at which inhibition is half-maximal. A lower IC50 goes with greater potency.
